From patent publication US8158764B2 (priority 2006, dated 2012) come the findings set out here.

Where “and” joins values, the source holds several entries; their conditions need not be identical. Identical values can stand only once.

For one series, the target named is T1, human μ receptors (Homo sapiens, UniProt P35372).
T1 construct: expressed in transfected cells; host or cells: HEK-293
The experiment in a line: biochemical. The format is binding.

Another series has as its target T2, κ receptors (Cavia porcellus, UniProt P41144).
T2 construct: homogenates of guinea-pigs cerebellum (250 μg of protein); from tissue; host or cells: guinea-pig cerebellum
As to the kind of experiment: Affinity to κ receptors, [3H]U-69593 binding on cerebellum homogenates. Also on record: species or system guinea-pigs. Conditions: for Ki: guinea-pig cerebellum, 0.7 nM [3H]U-69593, read-out: Ki (nM) κ Receptor. How it is done:
(§1) The non specific binding was determined in the presence of 10 μM of naltrexone. After incubation, samples were rapidly filtered through glass fibers (GF/B, Packard), previously incubated with 0.3% of polyethyleneimine and rinsed several times with 50 mM of cold Tris-HCl using a “96-sample cell harvester” (Unifilter, Packard). Filters were afterwards dried and the radioactivity was counted.

Series [1] can be described thus: Activity and toxicity of the 3-methoxy derivative (test not specified). The note with it: in words.
Series [2] in a line: Tail flick test (analgesic activity). It counts as in vivo, mouse. Set-up: AUC, tail flick test: unit not given here. The note with it: for duration of the analgesic activity compared with morphine: in words, tail flick and hot plate tests; for ED50 / Max Effect (time), tail flick test: mouse, intravenous. How it is done: The “Tail flick” test (test of D'Amour & Smith, 1941, Pharmacol Exp Ther; 72: 74-79) consists in placing the tail of a mouse, after administration of a product, in front of an infrared source in order to produce a nociceptive stimulus (a surface temperature of 55° C.). The reaction time (RT) of the mouse (latency between the start of the light beam and the moment the mouse withdraws its tail) was measured in duplicate at 8 times spread from […] after administration of the product. A maximal 10 second-period has been chosen as the maximal reaction time in order to avoid any tissue damage for the animal.
Products were intravenously-administered at doses comprised between 0.5 and 8 mg/kg (8 mice per group).
Two measures of reaction time were realized before administration of the product for each mouse so as to establish a base line.
The MPE % represents the percentage of possible maximal effect and corresponds to the following formula: […]
(Thermal pain tests record how soon the animal reacts.)

A short description of series [3]: Hot plate test (analgesic activity). The format is in vivo. The note with it: mouse, intravenous.
A further series has as its target T3, δ receptors (Homo sapiens, UniProt P41143).
T3 construct: expressed in transfected cells; host or cells: CHO
The experiment in a line: Affinity to δ receptors, [3H]DADLE binding on cell membrane homogenates (CHO cells). How it is done: as §1

For series [4], the target named is T4, κ receptor (Oryctolagus cuniculus, UniProt G1SJ19).
T4 construct: using prostatic segments of rabbits' deferens vas; from tissue; host or cells: rabbit vas deferens (prostatic segments)
T4 sequence (G1SJ19 1-383): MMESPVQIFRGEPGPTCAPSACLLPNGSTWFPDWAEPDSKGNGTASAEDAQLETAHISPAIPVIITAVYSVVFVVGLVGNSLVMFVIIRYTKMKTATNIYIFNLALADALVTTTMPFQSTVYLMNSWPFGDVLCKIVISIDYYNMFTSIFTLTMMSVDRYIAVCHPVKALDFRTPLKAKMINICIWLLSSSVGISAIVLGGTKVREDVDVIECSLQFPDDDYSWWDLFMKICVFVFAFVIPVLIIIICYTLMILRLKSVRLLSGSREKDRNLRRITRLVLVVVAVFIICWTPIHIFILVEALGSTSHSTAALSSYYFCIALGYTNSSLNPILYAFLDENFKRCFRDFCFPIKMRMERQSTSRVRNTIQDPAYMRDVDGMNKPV
The format is biochemical, rabbit.

Series [5] deals with T4, κ receptor. The experiment in a line: Antagonist activity on κ receptor, electrically stimulated rabbit vas deferens. It counts as biochemical. The method, then: The agonist/antagonist activity on K receptors of compounds according to the invention was estimated by using prostatic segments of rabbits' deferens vas, stretched and stimulated by an electric current of 0.1 Hz during 1 msec.
In order to test an antagonist activity, a response control (peak of contraction of the tissue) was obtained by exposing tissues to a high concentration (0.1 μM) in specific agonist U-69593.
Tissues were then exposed to growing concentrations of the compound according to the invention or to the specific agonist. The various concentrations were cumulated and each concentration was maintained in contact with the tissue until a stable response was obtained or up to […].
An antagonist response was observed when the amplitude of peaks of contractions provoked by electric stimulation was similar to the one observed with the nor-BNI.
The measured parameter was a maximal change of amplitude of the peaks of contractions provoked by electric stimulation with various concentrations of the compound.

Series [6] in a line: Intestinal transit in mice.

T1 sequence (P35372 whole entry): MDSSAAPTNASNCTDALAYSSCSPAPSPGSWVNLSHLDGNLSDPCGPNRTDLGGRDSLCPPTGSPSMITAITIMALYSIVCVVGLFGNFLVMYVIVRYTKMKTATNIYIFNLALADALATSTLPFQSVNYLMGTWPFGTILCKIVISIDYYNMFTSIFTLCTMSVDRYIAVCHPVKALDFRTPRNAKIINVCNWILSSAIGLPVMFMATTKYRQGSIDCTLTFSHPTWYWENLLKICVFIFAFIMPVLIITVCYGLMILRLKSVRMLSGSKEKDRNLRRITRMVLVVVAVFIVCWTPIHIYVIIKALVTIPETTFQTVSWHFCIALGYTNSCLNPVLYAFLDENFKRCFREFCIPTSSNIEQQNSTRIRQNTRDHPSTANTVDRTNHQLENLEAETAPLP
T2 sequence (P41144 whole entry): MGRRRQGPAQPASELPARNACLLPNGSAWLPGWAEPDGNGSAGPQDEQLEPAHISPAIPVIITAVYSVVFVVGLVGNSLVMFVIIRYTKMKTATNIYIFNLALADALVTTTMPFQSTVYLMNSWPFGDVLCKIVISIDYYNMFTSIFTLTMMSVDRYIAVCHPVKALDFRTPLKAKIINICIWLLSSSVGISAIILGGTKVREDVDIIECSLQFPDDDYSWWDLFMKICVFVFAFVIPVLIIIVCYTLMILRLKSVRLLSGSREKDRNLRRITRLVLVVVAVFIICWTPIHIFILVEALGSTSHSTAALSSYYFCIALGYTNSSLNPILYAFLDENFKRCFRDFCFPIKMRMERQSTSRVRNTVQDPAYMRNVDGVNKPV
T3 sequence (P41143 whole entry): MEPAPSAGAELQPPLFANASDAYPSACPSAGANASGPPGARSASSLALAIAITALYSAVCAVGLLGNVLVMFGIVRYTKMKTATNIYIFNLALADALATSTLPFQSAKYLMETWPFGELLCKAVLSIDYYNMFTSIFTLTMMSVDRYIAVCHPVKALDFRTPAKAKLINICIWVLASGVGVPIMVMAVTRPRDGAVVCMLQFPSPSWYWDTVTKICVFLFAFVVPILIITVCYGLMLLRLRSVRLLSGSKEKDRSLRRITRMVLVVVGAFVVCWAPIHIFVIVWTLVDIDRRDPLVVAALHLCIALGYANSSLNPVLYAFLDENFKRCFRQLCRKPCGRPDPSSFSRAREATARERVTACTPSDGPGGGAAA

The term Ki denotes the dissociation constant of the complex between target and ligand, obtained from inhibition or displacement. At human μ receptors, `COc1ccc2c3c1OC1C(OC4OC(C(=O)NCCS)C(O)C(O)C4O)C=CC4C(C2)N(C)CCC341` (centres unmarked) [Compound C6G-cya] registered a Ki of 11 nM. Further, on κ receptors, the Ki amounted to 100 nM. In addition, in series [1], the “activity of the 3-methoxy substituted compound” value is “inactive” and the “toxicity of the 3-methoxy substituted compound” value is “toxic”.
The ED50 is the dose that gives a 50% effect, or the effect in half of the subjects. Consider `CCOc1ccc2c3c1OC1C(OC4OC(C(=O)NCCS)C(O)C(O)C4O)C=CC4C(C2)N(C)CCC341` (centres unmarked) [Compound M3Et-6G-cya], for which the Ki was determined as 13 nM at human μ receptors and 220 nM on κ receptors. Further, the “AUC, tail flick test” value in series [2] (dose 1 mg/kg iv) amounted to 1047.85; in [2] (dose 2 mg/kg iv), 2538.93; in [2] (dose 4 mg/kg iv) it was 5012.90; in [2] (dose 8 mg/kg iv), 6059.22. For the same molecule, in [2], the “duration of the analgesic activity compared with morphine” value was “much longer”. Also, the ED50 in [2] was 2.04 mg/kg; in series [3], 2.75 mg/kg. In [2], the “Max Effect (time), tail flick test” value worked out at 120 min. The “Effet max (time), hot plate test” value in series [3] was determined as 120 min.
In the case of `CCOc1ccc2c3c1O[C@H]1[C@@H](O[C@@H]4O[C@H](C(=O)NCCSSCCC(=O)Nc5cccc6c7c([nH]c56)[C@@H]5Oc6c(O)ccc8c6[C@@]56CCN(CC5CC5)[C@H](C8)[C@]6(O)C7)[C@@H](O)[C@H](O)[C@H]4O)C=CC4[C@@H](C2)N(C)CC[C@@]341` (some centres unmarked) [M3Et-6G-cya-3MP-NTI], the “AUC, tail flick test” value is 2576 in [2] (dose 2 mg/kg iv), 4410 in series [2] (dose 4 mg/kg iv) and 5733 in [2] (dose 8 mg/kg iv). In series [2], this molecule displayed an ED50 of 2.9 mg/kg. Further, the “Max Effect (time), tail flick test” value in series [2] turned out to be 120 min.
Consider `CCOc1ccc2c3c1OC1C(OC4OC(C(=O)NCCSSCCNC(=O)C5OC(OC6C=CC7C8Cc9ccc(OCC)c%10c9C7(CCN8C)C6O%10)C(O)C(O)C5O)C(O)C(O)C4O)C=CC4C(C2)N(C)CCC341` (centres unmarked) [M3Et-6G-cya-cya-M3Et-6G], for which the Ki was 14 nM at human μ receptors, > 1000 nM at δ receptors and 25 nM at κ receptors. Besides, the “improvement of affinity for κ receptors (factor)” value at κ receptors (compared with morphine) was 6. In addition, the “agonist activity: response in % of the response control at U-69593” value at κ receptor [4] is 0% and −4% and −3%. The “antagonist activity: response in % of the response control at U-69593 (0.1 μM)” value at κ receptor [5] (compound 0.03 μM) is on record as 100%; on κ receptor [5] (compound 0.3 μM), 100%; at κ receptor [5] (compound 3 μM), 92%; at κ receptor [5] (compound 30 μM), 71%. At κ receptor [5] (in words), the “agonist/antagonist behaviour on κ receptor” value is given as “behaves as a κ receptor antagonist”. Besides, the “AUC, tail flick test” value in series [2] (dose 0.5 mg/kg iv) is 617.79; in series [2] (dose 1 mg/kg iv) it was 1233.75; in [2] (dose 2 mg/kg iv), 4824.51; in series [2] (dose 4 mg/kg iv) it was 5915.16; in series [2] (dose 8 mg/kg iv), 5817.46. For the same molecule, the “duration of the analgesic activity compared with morphine” value in [2] is “much longer”. For the same molecule, the “duration of maximum analgesic activity” value in series [2] (injected at two-fold ED50, no supplementary dose) is recorded as “at least 6 hours”. Also, the values for the ED50 in [2] and in series [3] were 1.32 mg/kg and 1.35 mg/kg, respectively. Besides, the “Max Effect (time), tail flick test” value in series [2] came to 120 min. In addition, the “Effet max (time), hot plate test” value in [3] is reported as 120 min. The transit inhibition result in series [6] (at the maximal analgesic effect after iv injection at ED50) is “about 90%”. Further, the “analgesia when transit speed becomes normal” value in series [6] (between 10 and 12 hours after injection) was determined as 50%. Further, the “effect on transit while analgesic activity is maintained at maximum” value in series [6] (in words) is “transit only slows down”.
With `Oc1ccc2c3c1O[C@H]1c4[nH]c5c(c4C[C@@]4(O)[C@@H](C2)N(CC2CC2)CC[C@]314)C[C@@]1(O)[C@H]2Cc3ccc(O)c4c3[C@@]1(CCN2CC1CC1)[C@H]5O4` [nor-BNI, nor-binaltorphimine, reference compound], the “antagonist activity: response in % of the response control at U-69593 (0.1 μM)” value at κ receptor [5] (compound 0.1 nM) is 80%; on κ receptor [5] (compound 0.3 nM) it was 55%; on κ receptor [5] (compound 1 nM) it was −1%.
